This note sets out measurements from patent publication US8435980B2 (AbbVie Inc., priority 2009, dated 2013).

The experiment concerns the target T1, Cdc7 (BEV coexpressed huCDC7/DBF4) (Homo sapiens, UniProt O00311).
T1 construct: made in house; host or cells: BEV (baculovirus expression vector) co-expression; insect cells are implied but no cell line is named
Briefly: Cdc7 enzyme inhibition assay ([33P]ATP, biotinylated peptide substrate, FlashPlate). The following applies: for Ki ratio comparisons (Ki Comparative Example/Ki Example): Table 2, Comparative Example lacking the chloro substituent versus the chloro Example. Format: biochemical. On the procedure: Cdc7 (BEV coexpressed huCDC7/DBF4) is prepared internally. Cdc7 assays are conducted as follows with final concentrations as listed. […] Reactions are quenched after 1 hr by the addition of 90 μL stop buffer (50 mM EDTA, 2M NaCl). […] (Ki) for exemplary compounds.

A value given as a limit tells only on which side of the number the result lay.

T1 sequence (O00311 whole entry): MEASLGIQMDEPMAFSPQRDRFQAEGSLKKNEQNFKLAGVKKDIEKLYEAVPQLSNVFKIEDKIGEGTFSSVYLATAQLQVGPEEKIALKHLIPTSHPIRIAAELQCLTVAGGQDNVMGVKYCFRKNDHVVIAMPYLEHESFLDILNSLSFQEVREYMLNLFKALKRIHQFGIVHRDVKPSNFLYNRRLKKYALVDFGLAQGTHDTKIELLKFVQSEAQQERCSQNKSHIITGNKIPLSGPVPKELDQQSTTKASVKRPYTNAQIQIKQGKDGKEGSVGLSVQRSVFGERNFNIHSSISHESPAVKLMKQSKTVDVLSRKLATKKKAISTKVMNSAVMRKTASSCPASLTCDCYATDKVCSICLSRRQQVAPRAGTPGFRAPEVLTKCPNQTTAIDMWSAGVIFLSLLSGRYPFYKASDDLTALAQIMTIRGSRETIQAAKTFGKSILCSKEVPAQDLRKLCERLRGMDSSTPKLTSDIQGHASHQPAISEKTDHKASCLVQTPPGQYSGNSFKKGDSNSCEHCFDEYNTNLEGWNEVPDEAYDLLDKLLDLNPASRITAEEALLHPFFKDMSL
T1 sequence (Q9UBU7 whole entry partner): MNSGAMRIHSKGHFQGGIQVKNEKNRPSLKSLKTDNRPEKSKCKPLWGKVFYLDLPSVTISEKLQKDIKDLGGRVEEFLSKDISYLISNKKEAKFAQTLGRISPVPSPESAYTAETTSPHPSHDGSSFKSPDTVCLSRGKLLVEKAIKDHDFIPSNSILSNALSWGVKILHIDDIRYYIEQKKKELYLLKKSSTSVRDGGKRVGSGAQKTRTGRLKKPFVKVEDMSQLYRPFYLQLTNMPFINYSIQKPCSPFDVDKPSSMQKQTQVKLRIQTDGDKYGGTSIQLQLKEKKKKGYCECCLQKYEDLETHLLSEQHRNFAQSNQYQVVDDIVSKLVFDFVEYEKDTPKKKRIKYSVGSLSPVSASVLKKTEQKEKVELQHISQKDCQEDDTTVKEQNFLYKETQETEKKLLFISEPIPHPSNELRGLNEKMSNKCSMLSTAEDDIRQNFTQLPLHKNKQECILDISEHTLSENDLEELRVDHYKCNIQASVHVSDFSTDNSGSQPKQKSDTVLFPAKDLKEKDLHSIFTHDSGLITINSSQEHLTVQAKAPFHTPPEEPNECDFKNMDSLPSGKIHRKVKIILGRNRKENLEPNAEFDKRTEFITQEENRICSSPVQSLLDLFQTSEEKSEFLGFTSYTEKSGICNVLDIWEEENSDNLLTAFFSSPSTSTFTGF

Consider `N#Cc1cc(-c2c[nH]c3ncccc23)cc(N2CCCCC2)n1` [Comparative Example 8, 6-piperidin-1-yl-4-(1H-pyrrolo[2,3-b]pyridin-3-yl)pyridine-2-carbonitrile, reference compound], for which the “Ki ratio comparisons (Ki Comparative Example/Ki Example)” value (from here on “Ki ratio comparisons”) is recorded as 2.
The same measure, in the same setting: in the case of `NC(=O)c1cc(-c2c[nH]c3ncccc23)cc(N2CCCCC2)n1` [Comparative Example 9, 6-piperidin-1-yl-4-(1H-pyrrolo[2,3-b]pyridin-3-yl)pyridine-2-carboxamide, reference compound] it was 84; in that of `N#Cc1cc(-c2c[nH]c3ncccc23)cc(N[C@H]2CC[C@H](O)CC2)n1` [Comparative Example 10, 6-[(trans-4-hydroxycyclohexyl)amino]-4-(1H-pyrrolo[2,3-b]pyridin-3-yl)pyridine-2-carbonitrile, reference compound], 10; in that of `NC(=O)c1cc(-c2c[nH]c3ncccc23)cc(N[C@H]2CC[C@H](O)CC2)n1` [Comparative Example 11, 6-[(trans-4-hydroxycyclohexyl)amino]-4-(1H-pyrrolo[2,3-b]pyridin-3-yl)pyridine-2-carboxamide, reference compound], 134.
Regarding `c1cnc2[nH]cc(-c3ccnc(NC4CCCCC4)n3)c2c1` [Comparative Example 12, N-cyclohexyl-4-(1H-pyrrolo[2,3-b]pyridin-3-yl)pyrimidin-2-amine, reference compound], the “Ki ratio comparisons” value is on record as 3.
For `N[C@H]1CC[C@H](Nc2nccc(-c3c[nH]c4ncccc34)n2)CC1` [Comparative Example 13, Trans-N-[4-(1H-pyrrolo[2,3-b]pyridin-3-yl)pyrimidin-2-yl]cyclohexane-1,4-diamine, reference compound], the “Ki ratio comparisons” value stood at 12.
Molecule `Clc1cc(-c2c[nH]c3ncccc23)cc(NC2CCCCC2)n1` [Example 1, 6-Chloro-N-cyclohexyl-4-(1H-pyrrolo[2,3-b]pyridin-3-yl)pyridin-2-amine] gave a Ki of less than 10 nM.
Still for that read-out and setting: as for `Clc1cc(-c2c[nH]c3ncccc23)cc(NCc2ccccc2)n1` [Example 2, N-Benzyl-6-chloro-4-(1H-pyrrolo[2,3-b]pyridin-3-yl)pyridin-2-amine], the figure is less than 10 nM.
On the same count and under the same terms, in the case of `C=CCNc1cc(-c2c[nH]c3ncccc23)cc(Cl)n1` [Example 3, N-Allyl-6-chloro-4-(1H-pyrrolo[2,3-b]pyridin-3-yl)pyridin-2-amine] it was less than 10 nM.
In turn, `Clc1cc(-c2c[nH]c3ncccc23)cc(N2CCCCC2)n1` [Example 4, 3-(2-chloro-6-piperidin-1-ylpyridin-4-yl)-1H-pyrrolo[2,3-b]pyridine] came in with a Ki of 10 to 100 nM.
With `CN(Cc1ccccc1)c1cc(-c2c[nH]c3ncccc23)cc(Cl)n1` [Example 5, N-benzyl-6-chloro-N-methyl-4-(1H-pyrrolo[2,3-b]pyridin-3-yl)pyridin-2-amine], the Ki was less than 10 nM.
The molecule `FC1(F)CN(c2cc(-c3c[nH]c4ncccc34)cc(Cl)n2)C1` [Example 6, 3-[2-chloro-6-(3,3-difluoroazetidin-1-yl)pyridin-4-yl]-1-1H-pyrrolo[2,3-b]pyridine] returned a Ki of 10 to 100 nM.
Same read-out and setting: as for `Cc1cccc(-c2cc(-c3c[nH]c4ncccc34)cc(Cl)n2)c1C` [Example 7, 3-[2-chloro-6-(2,3-dimethylphenyl)pyridin-4-yl]-1H-pyrrolo[2,3-b]pyridine], the figure is 10 to 100 nM.
On to `Clc1cc(-c2c[nH]c3ncccc23)cc(NC2CCOCC2)n1` [Example 8, 6-chloro-4-(1H-pyrrolo[2,3-b]pyridin-3-yl)-N-tetrahydro-2H-pyran-4-ylpyridin-2-amine], for which the Ki was less than 10 nM.
`OC1CCCCC1Nc1cc(-c2c[nH]c3ncccc23)cc(Cl)n1` (stereo not drawn) [Example 9, 2-{[6-chloro-4-(1H-pyrrolo[2,3-b]pyridin-3-yl)pyridin-2-yl]amino}cyclohexanol] had a Ki of less than 10 nM.
For the molecule `COCCNc1cc(-c2c[nH]c3ncccc23)cc(Cl)n1` [Example 10, 6-chloro-N-(2-methoxyethyl)-4-(1H-pyrrolo[2,3-b]pyridin-3-yl)pyridin-2-amine], the Ki is less than 10 nM.
The molecule `OCCNc1cc(-c2c[nH]c3ncccc23)cc(Cl)n1` [Example 11, 2-{[6-chloro-4-(1H-pyrrolo[2,3-b]pyridin-3-yl)pyridin-2-yl]amino}ethanol] returned a Ki of less than 10 nM.
Molecule `COCCN(CCOC)c1cc(-c2c[nH]c3ncccc23)cc(Cl)n1` [Example 12, 6-chloro-N,N-bis(2-methoxyethyl)-4-(1H-pyrrolo[2,3-b]pyridin-3-yl)pyridin-2-amine] had an inhibition constant Ki of 10 to 100 nM.
The same measure, in the same setting: in the case of `Clc1cc(-c2c[nH]c3ncccc23)cc(NCC2CCCO2)n1` (stereo not drawn) [Example 13, 6-chloro-4-(1H-pyrrolo[2,3-b]pyridin-3-yl)-N-(tetrahydrofuran-2-ylmethyl)pyridin-2-amine] it was less than 10 nM; in that of `O[C@H]1CC[C@H](Nc2cc(-c3c[nH]c4ncccc34)cc(Cl)n2)CC1` [Example 14, Trans 4-{[6-chloro-4-(1H-pyrrolo[2,3-b]pyridin-3-yl)pyridin-2-yl]amino}cyclohexanol], less than 10 nM.
With `NC1CCC(Nc2cc(-c3c[nH]c4ncccc34)cc(Cl)n2)CC1` (stereo not drawn) [Example 15, N-[6-chloro-4-(1H-pyrrolo[2,3-b]pyridin-3-yl)pyridin-2-yl]cyclohexane-1,4-diamine], the Ki was less than 10 nM.
Turning to `COC1CCCCC1Nc1cc(-c2c[nH]c3ncccc23)cc(Cl)n1` (stereo not drawn) [Example 16, 6-chloro-N-(2-methoxycyclohexyl)-4-(1H-pyrrolo[2,3-b]pyridin-3-yl)pyridin-2-amine], the Ki is 10 to 100 nM.
Still for that read-out and setting: as for `NC1CCCCC1Nc1cc(-c2c[nH]c3ncccc23)cc(Cl)n1` (stereo not drawn) [Example 17, N-[6-chloro-4-(1H-pyrrolo[2,3-b]pyridin-3-yl)pyridin-2-yl]cyclohexane-1,2-diamine], the figure is less than 10 nM.
The same measure, in the same setting: in the case of `CC(C)(O)CNc1cc(-c2c[nH]c3ncccc23)cc(Cl)n1` [Example 18, 1-{[6-chloro-4-(1H-pyrrolo[2,3-b]pyridin-3-yl)pyridin-2-yl]amino}-2-methylpropan-2-ol] it was less than 10 nM; in that of `OCCCCNc1cc(-c2c[nH]c3ncccc23)cc(Cl)n1` [Example 19, 4-{[6-chloro-4-(1H-pyrrolo[2,3-b]pyridin-3-yl)pyridin-2-yl]amino}butan-1-ol], less than 10 nM; in that of `CC(C)(CO)CCCNc1cc(-c2c[nH]c3ncccc23)cc(Cl)n1` [Example 20], less than 10 nM.
On the same count and under the same terms, as for `CS(=O)(=O)NC1CCC(Nc2cc(-c3c[nH]c4ncccc34)cc(Cl)n2)CC1` (stereo not drawn) [Example 21, N-(4-{[6-chloro-4-(1H-pyrrolo[2,3-b]pyridin-3-yl)pyridin-2-yl]amino}cyclohexyl)methanesulfonamide], the figure is less than 10 nM; as for `CC(=O)NC1CCC(Nc2cc(-c3c[nH]c4ncccc34)cc(Cl)n2)CC1` (stereo not drawn) [Example 22, N-(4-{[6-chloro-4-(1H-pyrrolo[2,3-b]pyridin-3-yl)pyridin-2-yl]-amino}cyclohexyl)acetamide], less than 10 nM; as for `NC1CCCC(Nc2cc(-c3c[nH]c4ncccc34)cc(Cl)n2)C1` (stereo not drawn) [Example 23, N-[6-chloro-4-(1H-pyrrolo[2,3-b]pyridin-3-yl)pyridin-2-yl]cyclohexane-1,3-diamine], less than 10 nM.
`CS(=O)(=O)NC1CCCC(Nc2cc(-c3c[nH]c4ncccc34)cc(Cl)n2)C1` (stereo not drawn) [Example 24, N-(3-{[6-chloro-4-(1H-pyrrolo[2,3-b]pyridin-3-yl)pyridin-2-yl]-amino}cyclohexyl)methanesulfonamide] returned a Ki of less than 10 nM.
As for `Clc1cc(-c2c[nH]c3ncccc23)cc(NCC2CCOCC2)n1` [Example 25, 6-chloro-4-(1H-pyrrolo[2,3-b]pyridin-3-yl)-N-(tetrahydro-2H-pyran-4-ylmethyl)pyridin-2-amine], the Ki is less than 10 nM.
Still for that read-out and setting: in the case of `OC1CCCC(Nc2cc(-c3c[nH]c4ncccc34)cc(Cl)n2)C1` (stereo not drawn) [Example 26, 3-{[6-chloro-4-(1H-pyrrolo[2,3-b]pyridin-3-yl)pyridin-2-yl]amino}cyclohexanol] it was less than 10 nM.
The same measure, in the same setting: as for `Clc1cc(-c2c[nH]c3ncccc23)cc(NCc2cccnc2)n1` [Example 27, 6-chloro-N-(pyridin-3-ylmethyl)-4-(1H-pyrrolo[2,3-b]pyridin-3-yl)pyridin-2-amine], the figure is less than 10 nM; as for `Clc1cc(-c2c[nH]c3ncccc23)cc(NCC2CCCOC2)n1` (stereo not drawn) [Example 28, 6-chloro-4-(1H-pyrrolo[2,3-b]pyridin-3-yl)-N-(tetrahydro-2H-pyran-3-ylmethyl)pyridin-2-amine], 10 to 100 nM.
Still for that read-out and setting: in the case of `Clc1cc(-c2c[nH]c3ncccc23)cc(NCC2CCNC2)n1` (stereo not drawn) [Example 29, 6-chloro-N-(pyrrolidin-3-ylmethyl)-4-(1H-pyrrolo[2,3-b]pyridin-3-yl)pyridin-2-amine] it was less than 10 nM; in that of `Cc1cccc(CNc2cc(-c3c[nH]c4ncccc34)cc(Cl)n2)c1C` [Example 30, 6-chloro-N-(2,3-dimethylbenzyl)-4-(1H-pyrrolo[2,3-b]pyridin-3-yl)pyridin-2-amine], 10 to 100 nM.
Take `Clc1cc(-c2c[nH]c3ncccc23)cc(NCc2ccncc2)n1` [Example 31, 6-chloro-N-(pyridin-4-ylmethyl)-4-(1H-pyrrolo[2,3-b]pyridin-3-yl)pyridin-2-amine]: the Ki fell in the range of 10 to 100 nM.
On the same count and under the same terms, as for `Clc1cc(-c2c[nH]c3ncccc23)cc(NCC2CCCCO2)n1` (stereo not drawn) [Example 32, 6-chloro-4-(1H-pyrrolo[2,3-b]pyridin-3-yl)-N-(tetrahydro-2H-pyran-2-ylmethyl)pyridin-2-amine], the figure is 10 to 100 nM; as for `Clc1cc(-c2c[nH]c3ncccc23)cc(NC2CCNCC2)n1` [Example 33, 6-chloro-N-piperidin-4-yl-4-(1H-pyrrolo[2,3-b]pyridin-3-yl)pyridin-2-amine], 10 to 100 nM.

As usually defined, the Ki is the dissociation constant of the complex between target and ligand, obtained from inhibition or displacement. Lower therefore signals tighter binding.
